Laboratory results taken from patent US7064139B2, “Method for treating retroviral infections” (Uniroyal Chemical Company, Inc., priority 2001, dated 2006).
Values after ≈ are worked out from the molar mass of the structure shown.

Tests used:
HIV-2 (ROD) = experiment: Inhibition of HIV-2 syncytium formation in CEM cells; format: cell-based; conditions: for EC50 (ug/ml) HIV-2 / EC50: CEM cells, syncytium formation, day four post infection; for HIV-2 % Protection: protection of CEM cells against virus-induced cytopathicity at the concentration in the previous column; for EC50: Human immunodeficiency virus 2, CCRF-CEM, read-out: EC50 (ug/ml) HIV-2
In short: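 Human T-lymphoblast CEM cells, suspended at roughly 300,000 cells per ml of culture medium, were infected with about 100 CCID50 of HIV-2 (ROD). Aliquots of 100 μl of infected cells were placed in 200 μl microtiter wells holding 100 μl of serial 5-fold compound dilutions, and syncytium formation was scored microscopically four days after infection.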

HIV-1 (IIIB) = experiment: microbe, parasite or virus in culture; format: cell-based; conditions: for EC50 (ug/ml) HIV-1 / EC50: CEM cells, syncytium formation, day four post infection; for HIV-1 % Protection: protection of CEM cells against virus-induced cytopathicity at the concentration in the previous column; for EC50: Human immunodeficiency virus 1, IIIB, CCRF-CEM, read-out: EC50 (ug/ml) HIV-1
In short: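 Human T-lymphoblast CEM cells at roughly 300,000 cells per ml were infected with about 100 CCID50 of HIV-1 (IIIB). Then 100 μl of the infected suspension went into 200 μl microtiter wells holding 100 μl of 5-fold serial compound dilutions. Inhibition of syncytium formation was scored microscopically on day four post infection, and protection against virus-induced cytopathicity was recorded.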

Davis strain CMV = experiment: Reduction of CMV-induced cytopathicity in HEL cells; format: cell-based, human cytomegalovirus (HCMV); conditions: HEL cells; for Antiviral % Inhibition Davis strain CMV: estimate of percent protection at the concentration in the previous column; for Antiviral EC50 (ug/ml) Davis strain CMV / EC50: virus-induced cytopathicity after seven days; for EC50: Human betaherpesvirus 5, 168 h, read-out: Antiviral EC50 (ug/ml) Davis strain CMV
In short: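 Confluent HEL cells were infected with 100 PFU/well CMV for 1–2 h, then washed and kept in MEM with 2% FCS and test compound. EC50 is the concentration cutting virus-induced cytopathicity by 50% versus untreated control at day 7. Where cytotoxicity interfered, percent protection at the stated concentration is given.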

| SMILES | EC50 (ug/ml) HIV-2 (HIV-2 (ROD)) | EC50 (ug/ml) HIV-1 (HIV-1 (IIIB)) | Antiviral % Inhibition Davis strain CMV (Davis strain CMV) | Antiviral EC50 (ug/ml) Davis strain CMV (Davis strain CMV) | HIV-2 % Protection (HIV-2 (ROD)) | HIV-1 % Protection (HIV-1 (IIIB)) | EC50 (HIV-2 (ROD)) | EC50 (HIV-1 (IIIB)) | EC50 (Davis strain CMV) |
| --- | --- | --- | --- | --- | --- | --- | --- | --- | --- |
| [O-][n+]1ccccc1[S+]([O-])Cc1cccc(C(F)(F)F)c1 (centres unmarked) [Compound 85] | 17.0 µg/mL (≈ 56.4 µM) | 13.00 µg/mL (≈ 43.1 µM) | 20.0% | >50 µg/mL | – | – | – | – | – |
| COc1ccc(C[S+]([O-])c2cccc[n+]2[O-])cc1 (centres unmarked) [Compound 86] | >0.8 µg/mL | >.8 µg/mL | – | 3.8 µg/mL | 0.0% | 0.0% | – | – | – |
| Cc1cc(C)c(C[S+]([O-])c2cccc[n+]2[O-])c(C)c1 (centres unmarked) [Compound 88, 2-(2,4,6-trimethylbenzylsulfinyl)-pyridine-N-oxide] | – | – | – | – | – | – | 1.5 µg/mL (≈ 5.45 µM) | 1.5 µg/mL (≈ 5.45 µM) | 25 µg/mL (≈ 90.8 µM) |
| Cc1ccc(C[S+]([O-])c2cccc[n+]2[O-])cc1C (centres unmarked) [Compound 89] | 2.8 µg/mL (≈ 10.7 µM) | 2.50 µg/mL (≈ 9.57 µM) | – | 20.0 µg/mL | – | – | – | – | – |
| Cc1ccc(C[S+]([O-])c2cccc[n+]2[O-])cc1 (centres unmarked) [Compound 91] | >4.0 µg/mL | >4 µg/mL | – | 34.5 µg/mL | 0.0% | 0.0% | – | – | – |
| [O-][n+]1ccccc1[S+]([O-])Cc1ccc(F)cc1 (centres unmarked) [Compound 92] | 4.0 µg/mL (≈ 15.9 µM) | ≧20 ug/ml | 10.0% | >50 µg/mL | – | 37.5% | – | – | – |
| COc1ccc(C)cc1CSc1cccc[n+]1[O-] [Compound 93] | ≧20 ug/ml | 8.00 µg/mL (≈ 30.6 µM) | 0.0% | >50 µg/mL | 37.5% | – | – | – | – |
| Cc1ccc(C)c(CS(=O)(=O)c2ccc(Cl)c[n+]2[O-])c1 [Compound 94] | 2.6 µg/mL (≈ 8.34 µM) | 1.90 µg/mL (≈ 6.09 µM) | – | 12.0 µg/mL | – | – | – | – | – |
| CC(C)c1ccc(C(C)C)c(C[S+]([O-])c2cccc[n+]2[O-])c1 (centres unmarked) [Compound 95] | ≧4 ug/ml | >4 µg/mL | – | 4.1 µg/mL | 37.5% | – | – | – | – |
| [O-][n+]1ccccc1[S+]([O-])Cc1ccc2c(c1)OCO2 (centres unmarked) [Compound 96] | 12.0 µg/mL (≈ 43.3 µM) | 20.00 µg/mL (≈ 72.1 µM) | 0.0% | >50 µg/mL | – | – | – | – | – |
| Cc1ccc(C)c(C[S+]([O-])c2cccc[n+]2[O-])c1C (centres unmarked) [Compound 97, 2-(2,3,6-Trimethylphenylmethylsulfinyl)pyridine N-oxide] | – | – | – | – | 0.0% | 0.0% | > 0.8 µg/mL | > 0.8 µg/mL | 11 µg/mL (≈ 39.9 µM) |
| COc1ccc(C[S+]([O-])c2cccc[n+]2[O-])cc1OC (centres unmarked) [Compound 98] | >0.8 µg/mL | >.8 µg/mL | – | 10.0 µg/mL | 0.0% | 0.0% | – | – | – |
| CC(c1ccccc1)[S+]([O-])c1cccc[n+]1[O-] (centres unmarked) [Compound 102, 2-(1-Phenylethylsulfinyl)pyridine N-oxide] | – | – | – | – | 0.0% | 0.0% | > 0.8 µg/mL | > 0.8 µg/mL | 4.3 µg/mL (≈ 17.4 µM) |
